Measured values published in patent US20130095122A1, “Peptides or Antibodies Which Bind to Melanoma Inhibitory Activity (MIA) Protein” (priority 2010, published 2013).

What was measured:
[1] = system: Mel Im melanoma cells; test: Boyden chamber invasion assay (MIA activity); assay type: cell-based, human
Procedure: Invasion assays were performed in Boyden Chambers containing polycarbonate filters with 8-μm pore size (Neuro Probe, Gaithersburg, Md., USA) essentially as described previously.^13 Filters were coated with matrigel, a commercially available reconstituted basement membrane (diluted 1:3 in H2O; BD Bioscience, Bradford, Mass., USA). The lower compartment was filled with fibroblast-conditioned medium used as a chemo attractant. Mel Im melanoma cells were harvested by trypsinization for 2 min at RT, resuspended in DMEM without FCS at a density 2.5×10^4 cells/mL, and placed in the upper compartment of the chamber. Except for the control experiment with untreated cells and experiments where cells were only treated with the respective peptide, MIA was added to the cell suspension at a final concentration of 200 ng/mL. Peptide AR71 (sequence: Ac-FHWRYPLPLPGQ-NH2) was used at a final concentration of 1 μM. MIA expressing murine B16 melanoma cells stably co-transfected with Sig-AR71-HisTag containing pCMX-PL1 vector^27 and an antibiotic resistance comprising plasmid (pCDNA3), and the respective mock control were also investigated for their ability to migrate. Therefore, cells were harvested by trypsinization for 2 min at RT, resuspended in DMEM without FCS at a density 2.5×10^4 cells/mL, and placed in the upper compartment of the chamber. After incubation at 37° C. for 4 h filters were removed. Cells adhering to the lower surface of the filter were fixed, stained, and counted. Experiments were carried out in triplicates and repeated at least three times.

[2] = system: murine B16 melanoma cells; test: In vivo metastasis assay, wt B16 cells injected into spleen, i.v. AR71 treatment; design: species or system mice; conditions: i.v. 50 μg every 24 h
Procedure: Additionally, 1×10^5 wt mouse melanoma B16 cells suspended in a solution containing AR71 (1 mg/mL) and 0.9% NaCl, or NaCl alone for the control mice, respectively, were injected into the spleen of each animal (n=8 for treated mice, as well as for control without AR71). Peptide AR71 was injected i.v. (50 μg every 24 h). After nine days, the mice were sacrificed and the livers were excised. Following formalin fixation, tissues were embedded in paraffin. Afterwards, sections were prepared and stained using hematoxylin and eosin before being subjected to histological analysis.
Therefore, wild type murine B16 melanoma cells were injected into the spleen of C57B16 mice with the mice being subsequently treated with i.v. injections of AR71 (50 μg every 24 h). After nine days, the mice were sacrificed, the livers were resected and again tissue sections were prepared. […] Four representative histological liver sections (hematoxylin and eosin stained) of untreated and treated mice, respectively, are shown in FIG. 4E.

[3] = molecular target: T1, MIA protein dimer (Homo sapiens, UniProt Q16674); test: Western blot analysis of MIA dimer bands; assay type: biochemical; conditions: MIA preincubated with 1 μM peptide (FIG. 2B)
T1 construct: made in house; host or cells: cell-free Rapid Translation System RTS 500 E. coli HY Disulfite Kit (Roche)
T1 sequence (Q16674 25-131): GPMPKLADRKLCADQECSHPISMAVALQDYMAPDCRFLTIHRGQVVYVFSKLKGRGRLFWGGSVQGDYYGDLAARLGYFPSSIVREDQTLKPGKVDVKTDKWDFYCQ
Procedure: Protein samples were denaturated at 70° C. for 10 min after addition of reducing and denaturing Roti-Load buffer (Roth, Karlsruhe, Germany) and subsequently separated on sodium dodecyl sulfate 12.75% polyacrylamid gels (SDS-PAGE) (Invitrogen, Groningen, The Netherlands). In the multimerization studies, MIA protein (1 μg) was incubated with AR71 (2.5 μg) overnight at RT before being treated as described above. After transferring the proteins onto a polyvinylidene fluoride (PVDF) membrane (BioRad, Richmond, Va., USA), the membrane was blocked using 3% BSA/PBS for 1 h at RT and incubated with a 1:150 dilution of primary polyclonal rabbit anti MIA antibody (Biogenes, Berlin, Germany) in 3% BSA/PBS overnight at 4° C. After washing in PBS the membrane was incubated with a 1:2000 dilution of an […] coupled secondary antibody (Chemikon, Hofheim, Germany) for 2 h at RT. Finally, after washing steps, immunoreactions were visualized by nitro blue tetrazolium/5-bromo-4-chloro-3-indolyl phosphate (NBT/BCIP) (Invitrogen, Karlsruhe, Germany) staining.

“Ac-FHWRYPLPLPGQ-NH2 [AR71, FHWRYPLPLPGQ]” was tested, and the “neutralization of the MIA effect on cell invasion” value ([1]; MIA 200 ng/mL pre-incubated with peptide 1 μM, Mel Im cells (FIG. 2C)) was “complete neutralization of the effect caused by MIA”, the “migratory behaviour of cells treated with peptide alone” value ([1]; peptide in absence of MIA, Mel Im cells) was “does not influence the migratory behaviour of melanoma cells” and the “adverse effects on other organs and tissues” value ([2]; nine days) was “no adverse effects on other organs and tissues were observed”. For the same substance, the “average number of metastases in the liver compared to untreated control mice” value ([2]; nine days (FIG. 4D)) was “significant reduction of the average number of metastases in the liver” and the “reduction of MIA dimer bands” value [3] was “strong reduction of the dimer bands”.
